Results: patent publication US12270016B1, “Structure and function of modular microfluidic device for in-vitro modeling of human organs” (Alfaisal University, priority 2024, dated 2025)

Assays:
[1] = test system: differentiated adipocytes; test: Glucose uptake by the adipocytes (2-NBDG glucose uptake assay kit) in microfluidic device; type: cell-based, human
Experimental: (§1) Cell Culture: In vitro model of the human inflamed adipose tissue (adipocyte/immune cell coculture): Prior to seeding the cells into the microfluidic device, the fluidic compartments underwent a sterilization process by filling them with 70% ethanol for a minimum of 4 hours. Afterward, the microfluidic devices were washed with deionized water, and each microfluidic device was loaded with 100 μL of Poly-L-lysine solution (0.1 mg/mL in H2O) and incubated overnight at 37° C. The microfluidic devices were then washed again, first with sterilized deionized water and then with phosphate-buffered saline (PBS). Next, the microfluidic devices were primed with a preadipocyte growth medium from (Cell Applications). […] Cell viability and morphological changes were monitored using a microscope. […] The concentrations of Tumor Necrosis Factor (TNFα) and Interleukin-6 (IL-6) in the supernatants were measured using an ELISA method. […] The percentage of calcein-AM-labeled cells was used to quantify cell viability. The growth and morphology of the cells were regularly monitored under the microscope. […] To assess cell differentiation of the adipocytes, the lipid content within adipocytes was monitored by staining the lipid droplets with Oil Red O (Sigma-Aldrich, St. Louis, MO, USA). […]

[2] = test system: Adipocytes and U937 cells; test: Cytokine immunoassay (ELISA) of supernatants from adipocyte/immune cell co-culture in VasChip3x2 microfluidic device; type: cell-based, human; conditions: inflammation state induced with 100 ng/ml LPA
Experimental: as §1

Row | Substance | glucose uptake ([1]; adipocyte monoculture, after insulin treatment) | cytokine secretion (TNF and IL-6 in the supernatants) [2] | glucose uptake ([1]; adipocyte/U937 co-culture, inflammation state induced with 100 ng/ml LPA)
1 | insulin | significant glucose uptake | – | –
2 | lysophosphatidic acid [LPA] | – | significant increase | decrease
